Experiment [1] has as its target T1, GSK3b (GST-full length GSK3b) (Homo sapiens, UniProt P49841).
T1 construct: GST-full length GSK3b: [SignalChem G08-9G]; purchased SignalChem G08-9G
The experiment can be described thus: GSK3b TR-FRET kinase inhibition assay. It is filed as biochemical. The method in brief:
(§1)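 GST-tagged full-length human kinase (1 nM), pre-incubated 30 min with compound, then reacted 100 min at ambient temperature at pH 7.5 with 200 nM biotinylated phospho-S645 glycogen synthase 631–650 peptide and ATP at 2 μM–1 mM. After EDTA quench, Tb-pSer641 antibody/streptavidin-d2 TR-FRET 665/615 ratio fitted for IC50.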
Background: In TR-FRET formats the signal depends on donor and acceptor labels being close together.

For experiment [2], the target named is T2, GSK3a (GST-full length GSK3a) (Homo sapiens, UniProt P49840).
T2 construct: GST-full length GSK3a [SignalChem G08-10G]; purchased SignalChem G08-10G
T2 sequence (P49840 whole entry): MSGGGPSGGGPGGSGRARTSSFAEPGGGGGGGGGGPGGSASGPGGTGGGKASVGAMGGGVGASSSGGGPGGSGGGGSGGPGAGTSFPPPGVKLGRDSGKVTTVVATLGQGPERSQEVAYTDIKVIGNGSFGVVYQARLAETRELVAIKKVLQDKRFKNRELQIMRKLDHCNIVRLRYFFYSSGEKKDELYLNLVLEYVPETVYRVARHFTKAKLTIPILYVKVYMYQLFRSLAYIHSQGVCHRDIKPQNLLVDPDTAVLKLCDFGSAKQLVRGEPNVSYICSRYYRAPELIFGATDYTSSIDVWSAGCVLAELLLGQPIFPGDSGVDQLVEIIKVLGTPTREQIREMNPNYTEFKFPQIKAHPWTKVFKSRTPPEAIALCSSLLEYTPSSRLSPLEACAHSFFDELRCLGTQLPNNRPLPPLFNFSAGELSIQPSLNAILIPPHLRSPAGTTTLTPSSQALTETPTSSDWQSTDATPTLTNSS
The experiment can be described thus: GSK3a TR-FRET kinase inhibition assay. The format is biochemical. The method in brief:
as §1

Setting [3] is: 1 mM ATP, Table 5, read-out: GSK3β TR-FRET 1 mM ATP Average IC50.
Where [4] appears, read: 1 mM ATP, Table 5, read-out: GSK3α TR-FRET 1 mM ATP Average IC50.
Setting [5] is: 1 mM ATP, Table 3, read-out: GSK3b TR-FRET 1 mM ATP Average IC50.
Where [6] appears, read: 1 mM ATP, Table 3, read-out: GSK3a TR-FRET 1 mM ATP Average IC50.
[7] abbreviates: 2 μM ATP, read-out: GSK3β TR-FRET 2 μM ATP GMean IC50.
Setting [8] is: 4 μM ATP, read-out: GSK3α TR-FRET 4 μM ATP GMean IC50.

Where two headings read alike, the source gives them in different places.

One may read the IC50 as the concentration that inhibits the measured activity by half.

T1 sequence (P49841 whole entry): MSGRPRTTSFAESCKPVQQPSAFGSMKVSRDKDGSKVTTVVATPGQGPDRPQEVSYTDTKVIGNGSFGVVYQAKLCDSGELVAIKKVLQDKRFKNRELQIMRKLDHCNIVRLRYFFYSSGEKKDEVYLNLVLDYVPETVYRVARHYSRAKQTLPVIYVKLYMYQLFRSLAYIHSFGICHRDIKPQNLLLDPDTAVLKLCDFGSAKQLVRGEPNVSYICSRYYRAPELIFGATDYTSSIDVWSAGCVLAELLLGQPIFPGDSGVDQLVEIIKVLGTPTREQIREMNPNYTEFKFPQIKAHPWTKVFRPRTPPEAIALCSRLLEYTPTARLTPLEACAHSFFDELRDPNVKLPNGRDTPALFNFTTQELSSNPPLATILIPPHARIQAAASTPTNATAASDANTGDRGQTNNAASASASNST

Regarding `CC1(C)CC(=O)C2=C(C1)Nc1ncc(C3CCCC3)c(C#N)c1C2(C)c1ccccc1` (single isomer, unassigned) [635A], the IC50 in experiment [1] (setting [3]) and in experiment [2] (setting [4]) was 5 to 20 µM throughout.

As to `CC1(C)CC(=O)C2=C(Nc3ncc(C(F)F)c(C#N)c3[C@]2(C)c2ccccc2)[C@@H]1F` (single isomer, unassigned) [Compound 633C], the IC50 in experiment [1] (setting [3]) and in experiment [2] (setting [4]) was 5 to 20 µM in each case.

`Cc1nn(C)c(C)c1-c1cccc(C2(C)C3=C(CC(C)(C)CC3=O)Nc3ncc(C(F)(F)F)cc32)c1` (single isomer, unassigned) [Compound 170B]: the results for the IC50 in experiment [1] (setting [5]) and in experiment [2] (setting [6]) were 1 to 5 µM and 5 to 20 µM, respectively.

As for `CC1(C)CC(=O)C2=C(C1)Nc1nccc(CC3CC3)c1C2(C)c1ccccc1` (single isomer, unassigned) [Compound 123A], the IC50 in experiment [1] (setting [5]) and in experiment [2] (setting [6]) was 1 to 5 µM throughout.

Regarding `CCC1(c2cccc(-c3cnnc(C)c3)c2)C2=C(CC(C)(C)CC2=O)Nc2ncccc21` (single isomer, unassigned) [Compound 1022B], the IC50 in experiment [1] (setting [7]) and in experiment [2] (setting [8]) was greater than 5 µM each time.

For the molecule `Cn1ncc2c3c(ncc21)NC1=C(C(=O)CC(C)(C)C1)C3(C)c1ccccc1` (single isomer, unassigned) [609A], the IC50 in experiment [1] (setting [3]) and in experiment [2] (setting [4]) was 5 to 20 µM throughout.

Consider `CC1(C)CC2=C(C(=O)N1)C(C)(c1cccc(S(C)(=O)=O)c1)c1cc(C3CC3)cnc1N2` (single isomer, unassigned) [647B], for which the IC50 in experiment [1] (setting [3]) and in experiment [2] (setting [4]) was 5 to 20 µM throughout.

`C=Cc1cnc2c(c1C#N)C(C)(c1ccccc1)C1=C(CC(C)(C)CC1=O)N2` (single isomer, unassigned) [607A]: the IC50 in experiment [1] (setting [3]) and in experiment [2] (setting [4]) was 1 to 5 µM in each case.

For `CC(C)Oc1cccc(C2(C)C3=C(CC(C)(C)CC3=O)Nc3ncc(C(F)(F)F)cc32)c1` (single isomer, unassigned) [648A], the IC50 lay within 1 to 5 µM in experiment [1] (setting [3]) and 5 to 20 µM in experiment [2] (setting [4]).

Turning to `CC1(C)CC(=O)C2=C(C1)Nc1ncc(F)c(C#N)c1C2(C)c1cccc(S(C)(=O)=O)c1` (single isomer, unassigned) [Compound 148A], the IC50 in experiment [1] (setting [5]) and in experiment [2] (setting [6]) was no more than 0.1 µM each time.

Regarding `CCC1(c2cccc(-c3cnn(C)c3)c2)C2=C(CC(C)(C)CC2=O)Nc2ncccc21` (single isomer, unassigned) [Compound 1018B], the IC50 in experiment [1] (setting [7]) and in experiment [2] (setting [8]) was no more than 0.1 µM in each case.

Regarding `CCC1(c2cccc(-c3ccnc4c3CCC4)c2)C2=C(CC(C)(C)CC2=O)Nc2ncccc21` (single isomer, unassigned) [Compound 1034A], the IC50 in experiment [1] (setting [7]) and in experiment [2] (setting [8]) was greater than 5 µM in each case.

For `CCC1(c2ccccc2)C2=C(CC(C)(C)CC2=O)Nc2ncc(F)cc21` (single isomer, unassigned) [114 B], the IC50 in experiment [1] (setting [7]) lay within 1 to 5 µM; in experiment [2] (setting [8]), 0.1 to 1 µM.

Consider `COc1cncc(F)c1-c1cccc(C2(C)C3=C(CC(C)(C)CC3=O)Nc3ncc(C4CC4)cc32)c1` (single isomer, unassigned) [Compound 167A], for which the 50% inhibitory concentration (IC50) in experiment [1] (setting [5]) and in experiment [2] (setting [6]) was 0.1 to 1 µM in each case.

As to `CC1(C)CC2=C(C(=O)N1)C(C)(c1ccccc1)c1c(ncc(F)c1C#N)N2` (single isomer, unassigned) [604A], the IC50 in experiment [1] (setting [3]) and in experiment [2] (setting [4]) was 1 to 5 µM each time.

Regarding `CC1(C)CC(=O)C2=C(Nc3ncc(C(F)F)c(C#N)c3[C@@]2(C)c2ccccc2)[C@@H]1F` (single isomer, unassigned) [Compound 633B], the IC50 in experiment [1] (setting [3]) lay in the range of 0.1 to 1 µM; in experiment [2] (setting [4]) it was 1 to 5 µM.

Turning to `CC1(C)CC2=C(C(=O)N1)C(C)(c1cccc(S(C)(=O)=O)c1)c1cc(F)cnc1N2` (single isomer, unassigned) [638A], the figures for the IC50 in experiment [1] (setting [3]) and in experiment [2] (setting [4]) were 0.1 to 1 µM and no more than 0.1 µM, respectively.

For the molecule `CC(C)Oc1cccc(C2(C)C3=C(CC(C)(C)CC3=O)Nc3ncc(C(F)(F)F)cc32)c1` (single isomer, unassigned) [648B], the IC50 lay within 0.1 to 1 µM in experiment [1] (setting [3]) and 1 to 5 µM in experiment [2] (setting [4]).

As to `Cc1nn(C)c(C)c1-c1cccc(C2(C)C3=C(CC(C)(C)CC3=O)Nc3ncc(C(F)(F)F)cc32)c1` (single isomer, unassigned) [Compound 170A], the IC50 in experiment [1] (setting [5]) and in experiment [2] (setting [6]) was 1 to 5 µM each time.

For the molecule `CC1(C)CC(=O)C2=C(C1)Nc1ncc(F)cc1C2(C)c1cccc(-c2ccncc2CC(F)(F)F)c1` (single isomer, unassigned) [653A], the IC50 in experiment [1] (setting [3]) and in experiment [2] (setting [4]) was 1 to 5 µM in each case.

As to `CCc1ccnc2c1C(C)(c1ccccc1)C1=C(CC(C)(C)CC1=O)N2` (single isomer, unassigned) [Compound 112A], the half-maximal inhibitory concentration (IC50) in experiment [1] (100 μM ATP, read-out: GSK3b 100 μM ATP Average IC50) is no more than 0.1 µM; in experiment [1] (setting [5]) it was 1 to 5 µM; in experiment [2] (100 μM ATP, read-out: GSK3a 100 μM ATP Average IC50) it was no more than 0.1 µM; in experiment [2] (setting [6]) it was 1 to 5 µM.

For `COc1cnc2c(c1C#N)C(C)(c1ccccc1)C1=C(CC(C)(C)CC1=O)N2` (single isomer, unassigned) [612B], the IC50 in experiment [1] (setting [3]) and in experiment [2] (setting [4]) was 5 to 20 µM each time.

Consider `CC1(C)CC(=O)C2=C(C1)Nc1ncccc1C2(C)c1cccc(-c2ccncc2C2CCC2)c1` (single isomer, unassigned) [Compound 151A], for which the IC50 in experiment [1] (setting [5]) and in experiment [2] (setting [6]) was 1 to 5 µM each time.

Consider `CC1(C)CC(=O)C2=C(C1)Nc1ncc(C(F)(F)F)c(C3CC3)c1C2(C)c1ccccc1` (single isomer, unassigned) [642B], for which the IC50 in experiment [1] (setting [3]) and in experiment [2] (setting [4]) was 5 to 20 µM in each case.

With `CC1(C)CC(=O)C2=C(C1)Nc1ncc(F)c(C#N)c1C2(C)c1cccc(S(C)(=O)=O)c1` (single isomer, unassigned) [Compound 148B], the IC50 in experiment [1] (setting [5]) and in experiment [2] (setting [6]) was 5 to 20 µM throughout.

`CCC1(c2cccc(-c3cc(C)ncc3C)c2)C2=C(CC(C)(C)CC2=O)Nc2ncccc21` (single isomer, unassigned) [Compound 1027A]: the IC50 in experiment [1] (setting [7]) and in experiment [2] (setting [8]) was greater than 5 µM in each case.

Consider `CC1(C)CC2=C(C(=O)[C@@H]1F)[C@](C)(c1ccccc1)c1c(ncc(F)c1C#N)N2` (single isomer, unassigned) [Compound 616B], for which the IC50 in experiment [1] (setting [3]) and in experiment [2] (setting [4]) was 0.1 to 1 µM each time.

Take `CC1(C)CC(=O)C2=C(C1)Nc1ncc(C3CC3)c(C#N)c1C2(C)c1ccccc1` (single isomer, unassigned) [619B]: the IC50 in experiment [1] (setting [3]) and in experiment [2] (setting [4]) was 5 to 20 µM throughout.

Turning to `Cc1c(F)cnc2c1C(C)(c1cccc(S(C)(=O)=O)c1)C1=C(CC(C)(C)CC1=O)N2` (single isomer, unassigned) [Compound 144A], the IC50 in experiment [1] (setting [5]) and in experiment [2] (setting [6]) was 0.1 to 1 µM each time.

Turning to `CC1(C)CC(=O)C2=C(Nc3ncc(F)c(C#N)c3[C@@]2(C)c2ccccc2)[C@H]1F` (single isomer, unassigned) [Compound 617D], the IC50 in experiment [1] (setting [3]) and in experiment [2] (setting [4]) was 0.1 to 1 µM throughout.

Turning to `CCC1(c2cccc(-c3cncn3C(C)C)c2)C2=C(CC(C)(C)CC2=O)Nc2ncccc21` (single isomer, unassigned) [Compound 149B], the IC50 in experiment [1] (setting [7]) and in experiment [2] (setting [8]) was 0.1 to 1 µM each time.

In the case of `COc1cncc(F)c1-c1cccc(C2(C)C3=C(CC(C)(C)CC3=O)Nc3ncc(C)cc32)c1` (single isomer, unassigned) [Compound 155B], the IC50 in experiment [1] (setting [5]) and in experiment [2] (setting [6]) was 5 to 20 µM throughout.

Values taken from patent US20260103465A1, “GLYCOGEN SYNTHASE KINASE 3 INHIBITORS AND USES THEREOF” (The Broad Institute, Inc., priority 2023, published 2026).
